The molecules below were run against T1, Solute carrier family 22 member 2 (Homo sapiens, UniProt O15244) (assay: Substrates of transporters of clinical importance in the absorption and disposition of drugs, OCT2).
T1 sequence (O15244 whole entry): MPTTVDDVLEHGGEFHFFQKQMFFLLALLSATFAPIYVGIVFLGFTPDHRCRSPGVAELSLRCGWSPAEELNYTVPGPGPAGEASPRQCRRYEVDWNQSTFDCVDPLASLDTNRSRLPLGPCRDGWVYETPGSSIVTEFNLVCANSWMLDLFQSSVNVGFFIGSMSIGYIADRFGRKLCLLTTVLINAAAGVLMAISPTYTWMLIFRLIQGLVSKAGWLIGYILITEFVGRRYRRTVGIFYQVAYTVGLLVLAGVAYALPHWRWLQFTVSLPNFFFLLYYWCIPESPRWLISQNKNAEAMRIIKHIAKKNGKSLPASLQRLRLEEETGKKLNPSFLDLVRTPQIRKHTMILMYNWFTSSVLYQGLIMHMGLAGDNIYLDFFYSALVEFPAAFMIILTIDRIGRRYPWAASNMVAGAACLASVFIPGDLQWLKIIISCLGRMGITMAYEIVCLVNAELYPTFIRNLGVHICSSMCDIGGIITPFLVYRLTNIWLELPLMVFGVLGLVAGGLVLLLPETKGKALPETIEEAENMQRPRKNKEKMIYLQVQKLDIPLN
Assay type: ADME

Row | Compound | Activity
1 | N=C(N)NC(=O)c1nc(Cl)c(N)nc1N [AMILORIDE] | transporter substrate
2 | c1cnc2cc3c(cc2n1)[C@@H]1CNC[C@H]3C1 [VARENICLINE] | transporter substrate
3 | CC(C)NCC(O)COc1cccc2[nH]ccc12 (stereo not drawn) [PINDOLOL] | transporter substrate
4 | NC12CC3CC(CC(C3)C1)C2 [AMANTADINE] | transporter substrate
5 | CNC(=C[N+](=O)[O-])NCCSCc1ccc(CN(C)C)o1 [RANITIDINE] | transporter substrate

The molecules below were run against T2, Solute carrier organic anion transporter family member 1B1 (Homo sapiens, UniProt Q9Y6L6) (assay: Substrates of transporters of clinical importance in the absorption and disposition of drugs, OATP1B1).
T2 sequence (Q9Y6L6 whole entry): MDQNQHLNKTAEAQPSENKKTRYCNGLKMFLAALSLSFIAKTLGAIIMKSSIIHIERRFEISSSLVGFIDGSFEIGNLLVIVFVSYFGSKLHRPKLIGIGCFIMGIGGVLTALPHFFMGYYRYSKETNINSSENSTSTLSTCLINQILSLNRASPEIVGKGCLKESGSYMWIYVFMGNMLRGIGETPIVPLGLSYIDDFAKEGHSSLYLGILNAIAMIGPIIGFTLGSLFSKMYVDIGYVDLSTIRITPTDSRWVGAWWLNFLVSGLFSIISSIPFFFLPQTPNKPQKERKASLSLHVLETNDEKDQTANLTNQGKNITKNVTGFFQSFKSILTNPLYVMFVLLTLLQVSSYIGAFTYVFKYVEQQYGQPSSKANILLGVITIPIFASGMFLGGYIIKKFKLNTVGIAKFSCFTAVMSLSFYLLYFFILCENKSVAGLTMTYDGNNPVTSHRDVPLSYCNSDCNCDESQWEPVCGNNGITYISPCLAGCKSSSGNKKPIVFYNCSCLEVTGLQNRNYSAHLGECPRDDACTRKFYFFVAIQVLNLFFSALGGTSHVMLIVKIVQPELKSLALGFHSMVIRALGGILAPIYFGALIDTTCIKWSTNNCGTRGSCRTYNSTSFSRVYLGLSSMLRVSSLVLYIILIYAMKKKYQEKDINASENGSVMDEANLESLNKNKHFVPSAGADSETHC
Assay type: ADME

Row | Compound | Activity
6 | CCOc1cc(CC(=O)N[C@@H](CC(C)C)c2ccccc2N2CCCCC2)ccc1C(=O)O [REPAGLINIDE] | transporter substrate
7 | C=CC1=C(C)/C(=C/c2[nH]c(Cc3[nH]c(/C=C4\NC(=O)C(C)=C4C=C)c(C)c3CCC(=O)O)c(CCC(=O)O)c2C)NC1=O [BILIRUBIN] | transporter substrate
8 | C=CC1=C(C)/C(=C/c2[nH]c(Cc3[nH]c(/C=C4\NC(=O)C(C)=C4C=C)c(C)c3CCC(=O)O[C@@H]3O[C@H](C(=O)O)[C@@H](O)[C@H](O)[C@H]3O)c(CCC(=O)O[C@@H]3O[C@H](C(=O)O)[C@@H](O)[C@H](O)[C@H]3O)c2C)NC1=O [BILIRUBIN GLUCURONIDE] | transporter substrate

These molecules were tested against T3, Solute carrier organic anion transporter family member 1A2 (Homo sapiens, UniProt P46721) (assay: Substrates of transporters of clinical importance in the absorption and disposition of drugs, OATP1A2).
T3 sequence (P46721 whole entry): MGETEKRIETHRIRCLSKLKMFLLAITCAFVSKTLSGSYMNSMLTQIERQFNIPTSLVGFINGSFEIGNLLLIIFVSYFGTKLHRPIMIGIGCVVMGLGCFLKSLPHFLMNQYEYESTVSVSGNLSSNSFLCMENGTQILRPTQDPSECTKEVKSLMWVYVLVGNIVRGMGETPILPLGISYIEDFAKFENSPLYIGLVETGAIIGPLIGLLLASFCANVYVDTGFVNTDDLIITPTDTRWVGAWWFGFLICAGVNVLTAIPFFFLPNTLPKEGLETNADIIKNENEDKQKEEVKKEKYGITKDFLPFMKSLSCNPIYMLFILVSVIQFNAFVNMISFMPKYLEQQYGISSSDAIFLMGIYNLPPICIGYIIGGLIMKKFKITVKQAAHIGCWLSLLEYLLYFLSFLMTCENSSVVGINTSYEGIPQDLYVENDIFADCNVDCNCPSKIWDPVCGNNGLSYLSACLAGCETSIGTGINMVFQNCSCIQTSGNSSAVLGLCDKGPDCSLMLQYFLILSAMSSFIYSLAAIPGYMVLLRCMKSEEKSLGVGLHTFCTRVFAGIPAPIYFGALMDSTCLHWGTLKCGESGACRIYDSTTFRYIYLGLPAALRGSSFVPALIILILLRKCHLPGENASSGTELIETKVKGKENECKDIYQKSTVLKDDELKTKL
Assay type: ADME

Row | Compound | Activity
9 | C[C@@H]1O[C@@H](O[C@H]2C[C@@H](O)[C@]3(CO)[C@H]4[C@H](O)C[C@]5(C)[C@@H](C6=CC(=O)OC6)CC[C@]5(O)[C@@H]4CC[C@]3(O)C2)[C@H](O)[C@H](O)[C@H]1O [OUABAIN] | transporter substrate
10 | C[C@H]1COc2c(N3CCN(C)CC3)c(F)cc3c(=O)c(C(=O)O)cn1c23.C[C@H]1COc2c(N3CCN(C)CC3)c(F)cc3c(=O)c(C(=O)O)cn1c23.O [LEVOFLOXACIN] | transporter substrate

Each molecule was assayed against T4, Solute carrier organic anion transporter family member 1B3 (Homo sapiens, UniProt Q9NPD5) (assay: Substrates of transporters of clinical importance in the absorption and disposition of drugs, OATP1B3).
T4 sequence (Q9NPD5 whole entry): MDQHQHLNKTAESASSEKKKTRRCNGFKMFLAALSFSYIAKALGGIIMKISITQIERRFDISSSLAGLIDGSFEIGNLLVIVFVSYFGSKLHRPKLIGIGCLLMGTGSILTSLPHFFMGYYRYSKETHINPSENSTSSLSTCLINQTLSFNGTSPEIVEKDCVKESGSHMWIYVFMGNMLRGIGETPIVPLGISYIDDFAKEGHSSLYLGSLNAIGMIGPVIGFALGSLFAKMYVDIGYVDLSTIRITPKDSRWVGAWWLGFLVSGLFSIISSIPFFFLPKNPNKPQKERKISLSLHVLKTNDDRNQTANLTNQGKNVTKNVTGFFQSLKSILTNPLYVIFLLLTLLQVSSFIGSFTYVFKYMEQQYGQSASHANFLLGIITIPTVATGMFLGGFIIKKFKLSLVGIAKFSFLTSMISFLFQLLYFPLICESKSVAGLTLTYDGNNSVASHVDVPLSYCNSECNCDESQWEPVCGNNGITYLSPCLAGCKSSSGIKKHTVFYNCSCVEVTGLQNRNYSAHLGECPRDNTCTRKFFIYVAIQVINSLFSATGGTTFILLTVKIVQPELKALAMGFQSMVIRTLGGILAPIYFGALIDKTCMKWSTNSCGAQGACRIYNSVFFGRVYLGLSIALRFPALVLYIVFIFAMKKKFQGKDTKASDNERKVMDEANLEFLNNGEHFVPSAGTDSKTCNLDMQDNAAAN
Assay type: ADME

Row | Compound | Activity
11 | CSCC[C@H](NC(=O)[C@H](Cc1ccc(OS(=O)(=O)O)cc1)NC(=O)[C@@H](N)CC(=O)O)C(=O)NCC(=O)N[C@@H](Cc1c[nH]c2ccccc12)C(=O)N[C@@H](CCSC)C(=O)N[C@@H](CC(=O)O)C(=O)N[C@@H](Cc1ccccc1)C(N)=O [SINCALIDE] | transporter substrate
12 | CCCc1nc2c(C)cc(-c3nc4ccccc4n3C)cc2n1Cc1ccc(-c2ccccc2C(=O)O)cc1 | transporter substrate
13 | CCCc1nc2c(C)cc(-c3nc4ccccc4n3C)cc2n1Cc1ccc(-c2ccccc2C(=O)O[C@@H]2O[C@H](C(=O)O)[C@@H](O)[C@H](O)[C@H]2O)cc1 [TELMISARTAN GLUCURONIDE] | transporter substrate

Source: ChEMBL document CHEMBL1743141, “Membrane transporters in drug development” (Nat Rev Drug Discov, 2010)
